The target of assay [1] is T1, murine Nurr1 receptor (Mus musculus, UniProt Q06219).
T1 construct: endogenously expressing the murine Nurr1 receptor; host or cells: Neuro-2A (N2A) mouse neuroblastoma cells stably transfected with 8NBRE-luciferase
Description: In vitro activity on N2A cells (NBRE-luciferase reporter). The note with it: N2A-8NBRE-luciferase cells, products incubated 24 hours. Format: cell-based. The method, then:
Evaluation of the in vitro Activity on N2A Cells
The tests consisted in evaluating the in vitro activity of the compounds of the invention on a cell line (N2A) endogenously expressing the murine Nurr1 receptor and stably transfected with the NOT binding response element (NBRE) coupled to the luciferase reporter gene. The EC50 values are between 0.01 and 1000 nM. The tests were performed according to the procedure described hereinbelow.
The cell line Neuro-2A is obtained from a standard commercial source (ATCC). The clone Neuro-2A was obtained from a spontaneous tumor originating from a strain of albino mice A by R. J Klebe et al. This line Neuro-2A is then stably transfected with 8NBRE-luciferase. The N2A-8NBRE cells are cultured to the point of confluence in 75 cm^2 culture flasks containing DMEM supplemented with 10% fetal calf serum, 4.5 g/L of glucose and 0.4 mg/ml of geneticin. After culturing for one week, the cells are recovered with 0.25% trypsin for 30 seconds and then resuspended in DMEM without phenol red, containing 4.5 g/L of glucose and 10% Hyclone defatted serum, and placed in white, transparent-based 96-well plates. The cells are deposited at a rate of 60 000 per well in 75 μL for 24 hours before adding the products. The products are applied in 25 μL and incubated for a further 24 hours. On the day of measurement, an equivalent volume (100 μL) of Steadylite is added to each well, and the wells are then left for 30 minutes to obtain complete lysis of the cells and maximum production of the signal. The plates are then measured in a microplate luminescence counter, after having been sealed with an adhesive film. The products are prepared in the form of a 10^−2 M stock solution, and then diluted in 100% of DMSO. Each concentration of product is prediluted in culture medium before incubation with the cells thus containing 0.625% final of DMSO.

Assay [2] deals with human NOT receptor. Description: Binding to the human NOT receptor by SPR (surface plasmon resonance, Biacore S51). The note with it: immobilized GST-NOT (NOT-FL) and His-Thr-NOT 329-598, 3.75 to 0.1 μM, 4° C. The method, then:
Evaluation of the Binding to the Human NOT Receptor The direct binding between compounds of the invention and the human NOT receptor was evaluated using the SPR (surface plasmon resonance) technique. In this test, the protein is immobilized covalently on the matrix and the test molecule is injected into the chamber containing the sensor chip. The signal is directly proportional to the amount of product bound to the protein. The binding tests were performed in a Biacore S51 machine (Biacore Inc., Piscataway N.J.). The entire GST-NOT protein (NOT-FL) was supplied by Invitrogen (PV3265). The domain for binding to the NOT ligand (His-Thr-NOT 329-598) was expressed and purified as described in Nature 423, 555-560. The two proteins, diluted to a concentration of 20 μg/ml in pH 5.0 acetate buffer containing 5 mM of DTT, were immobilized on a surface of carboxymethyl 5′ dextran (CM5 sensor chip, Biacore Inc.) via amine coupling according to the protocol recommended by Biacore, eluting with an HBS-N buffer (10 mM HEPES, 0.15 M NaCl, 3 mM EDTA, pH 7.4). Approximately 10 000-15 000 resonance units (RU) of the proteins are captured on the surface of the sensor chip CM5. […] Each concentration of product is injected at 4° C. for 1 minute at 30 μl/min. The dissociation was recorded for 5 minutes without any other surface regeneration procedure. […]

Here are results for three compounds from patent US7902219B2, “2-benzoylimidazopyridine derivatives, preparation and therapeutic use thereof” (Sanofi-Aventis, priority 2006, dated 2011).

T1 sequence (Q06219 whole entry): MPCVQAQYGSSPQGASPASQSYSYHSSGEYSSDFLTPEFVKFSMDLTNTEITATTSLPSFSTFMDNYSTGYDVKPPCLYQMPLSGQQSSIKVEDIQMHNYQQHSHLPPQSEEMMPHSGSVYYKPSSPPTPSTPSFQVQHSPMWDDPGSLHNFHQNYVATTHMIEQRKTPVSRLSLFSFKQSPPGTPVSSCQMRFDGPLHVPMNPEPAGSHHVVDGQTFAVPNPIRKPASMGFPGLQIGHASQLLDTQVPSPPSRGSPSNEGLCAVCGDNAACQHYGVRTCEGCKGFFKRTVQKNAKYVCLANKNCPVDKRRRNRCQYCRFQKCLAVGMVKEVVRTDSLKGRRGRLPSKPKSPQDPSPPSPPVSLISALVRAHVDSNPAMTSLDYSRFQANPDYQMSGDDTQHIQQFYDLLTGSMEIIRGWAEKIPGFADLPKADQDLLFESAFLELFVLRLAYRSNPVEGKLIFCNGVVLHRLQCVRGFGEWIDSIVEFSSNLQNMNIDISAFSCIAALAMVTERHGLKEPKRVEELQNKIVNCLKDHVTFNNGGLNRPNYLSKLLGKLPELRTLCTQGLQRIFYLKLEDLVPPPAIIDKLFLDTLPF

Compound `Cc1ccc2nc(C(=O)c3ccccc3)cn2c1.Cl` [Compound 1, (6-Methylimidazo[1,2-a]pyridin-2-yl)(phenyl)methanone hydrochloride (1:1)] came in with an EC50 in assay [1] of 300 pM. For the same compound, the “affinity (classified by maximum binding level and kinetic parameters of binding to the immobilized protein)” value in assay [2] was “moderate affinity”.
On to `Br.CC(C)(O)c1ccc2nc(C(=O)c3ccccc3)cn2c1` [Compound 3, [6-(1-Hydroxy-1-methylethyl)imidazo[1,2-a]pyridin-2-yl] (phenyl)-methanone hydrobromide (1:1)], for which a half-maximal response in assay [1] (EC50) required 200 pM. Further, the “affinity (classified by maximum binding level and kinetic parameters of binding to the immobilized protein)” value in assay [2] is on record as “moderate affinity”.
In assay [1], `O=C(c1ccccc1)c1cn2cc(-c3ccccc3)ccc2n1` [Compound 6, Phenyl(6-phenylimidazo[1,2-a]pyridin-2-yl)methanone] registered an EC50 of 20 pM.
